Q: Which results are given for `Nc1cc(Cl)nnc1Cl`?
A: solubility (mole fraction) (in ethanol, 303.15 K): 0.0171; solubility (mole fraction) (in ethanol, 305.65 K): 0.0179; solubility (mole fraction) (in ethanol, 308.15 K): 0.0185; solubility (mole fraction) (in ethanol, 310.65 K): 0.0192; solubility (mole fraction) (in ethanol, 313.15 K): 0.0202; solubility (mole fraction) (in ethanol, 315.65 K): 0.0212; solubility (mole fraction) (in ethanol, 318.15 K): 0.022; solubility (mole fraction) (in ethanol, 320.65 K): 0.023; solubility (mole fraction) (in ethanol, 323.15 K): 0.024

Q: Which solubility (mole fraction) (in water, 298.15 K) does the source give for `COc1cc(/C=C/C(=O)CC(=O)/C=C/c2ccc(O)c(OC)c2)ccc1O` here?
A: Its solubility (mole fraction) is 1.5e-07.

Q: And the solubility (mole fraction) (in water, 303.15 K)?
A: Its solubility (mole fraction) is 1.7e-07.

Q: What about the solubility (mole fraction) (in water, 308.15 K) of the same molecule?
A: Its solubility (mole fraction) is 1.9e-07.

Q: What about the solubility (mole fraction) (in water, 313.15 K) of the same molecule?
A: The solubility (mole fraction) was 2e-07.

Q: What about the solubility (mole fraction) (in water, 318.15 K) of the same molecule?
A: The solubility (mole fraction) was 2.2e-07.

Q: Which results are given for `Cc1nc2n(c(=O)c1CCN1CCC(c3noc4cc(F)ccc34)CC1)CCCC2`?
A: solubility (mole fraction) (in water, 298.15 K): 1e-07; solubility (mole fraction) (in water, 303.15 K): 1e-07; solubility (mole fraction) (in water, 308.15 K): 2e-07; solubility (mole fraction) (in water, 313.15 K): 2e-07; solubility (mole fraction) (in water, 318.15 K): 3e-07; solubility (mole fraction) (in water, 323.15 K): 4e-07; solubility (mole fraction) (in water, 328.15 K): 5e-07; solubility (mole fraction) (in water, 333.15 K): 6e-07

Q: With `C/C=C/C=C/C(=O)O` as the molecule, how does the solubility (mole fraction) (in n-propanol, 283.15 K) read?
A: The solubility (mole fraction) was 0.0201.

Q: What about the solubility (mole fraction) (in n-propanol, 288.15 K) of the same molecule?
A: The solubility (mole fraction) was 0.0283.

Q: What about the solubility (mole fraction) (in n-propanol, 293.15 K) of the same molecule?
A: The solubility (mole fraction) was 0.0389.

Q: What about the solubility (mole fraction) (in n-propanol, 298.15 K) of the same molecule?
A: The solubility (mole fraction) was 0.0519.

Q: And the solubility (mole fraction) (in n-propanol, 303.15 K)?
A: Its solubility (mole fraction) is 0.0677.

Q: What about the solubility (mole fraction) (in n-propanol, 308.15 K) of the same molecule?
A: The solubility (mole fraction) was 0.0851.

Q: And the solubility (mole fraction) (in n-propanol, 313.15 K)?
A: Its solubility (mole fraction) is 0.0938.

Q: What about the solubility (mole fraction) (in n-propanol, 318.15 K) of the same molecule?
A: Its solubility (mole fraction) is 0.129.

Q: And the solubility (mole fraction) (in n-propanol, 323.15 K)?
A: Its solubility (mole fraction) is 0.151.

Q: Which solubility (mole fraction) (in acetone, 303.15 K) does the source give for `CC(=O)OCC(=O)[C@@]12N=C(C)O[C@@H]1C[C@H]1[C@@H]3CCC4=CC(=O)C=C[C@]4(C)[C@H]3[C@@H](O)C[C@@]12C` here?
A: The solubility (mole fraction) was 0.00721.

Q: And the solubility (mole fraction) (in ethanol, 303.15 K)?
A: Its solubility (mole fraction) is 0.0024.

Q: And the solubility (mole fraction) (in ethyl acetate, 303.15 K)?
A: Its solubility (mole fraction) is 0.00399.

Q: What about the solubility (mole fraction) (in isopropanol, 303.15 K) of the same molecule?
A: The solubility (mole fraction) was 0.00204.

Q: Which results are given for `O=C(O)c1cccc(C(=O)O)c1`?
A: solubility (mole fraction) (in n-propyl acetate, 303.2 K): 0.000791; solubility (mole fraction) (in n-propyl acetate, 313.2 K): 0.000934; solubility (mole fraction) (in n-propyl acetate, 323.2 K): 0.00108; solubility (mole fraction) (in n-propyl acetate, 333.2 K): 0.00132; solubility (mole fraction) (in n-propyl acetate, 343.2 K): 0.00138; solubility (mole fraction) (in n-propyl acetate, 353.2 K): 0.0018; solubility (mole fraction) (in n-propyl acetate, 363.2 K): 0.00215

Q: Which results are given for `CO[C@H]1O[C@H](CO)[C@@H](O)[C@H](O)[C@H]1O`?
A: solubility (mole fraction) (in methanol, 293.15 K): 0.00941; solubility (mole fraction) (in methanol, 298.15 K): 0.0109; solubility (mole fraction) (in methanol, 303.15 K): 0.0128; solubility (mole fraction) (in methanol, 308.18 K): 0.015; solubility (mole fraction) (in methanol, 313.15 K): 0.0175; solubility (mole fraction) (in methanol, 318.15 K): 0.02

Q: Which solubility (mole fraction) (in ethanol, 303.5 K) does the source give for `c1ccc(P(c2ccccc2)c2ccccc2)cc1` here?
A: The solubility (mole fraction) was 0.009.

Q: What about the solubility (mole fraction) (in ethanol, 308.3 K) of the same molecule?
A: The solubility (mole fraction) was 0.0117.

Q: And the solubility (mole fraction) (in ethanol, 313.3 K)?
A: Its solubility (mole fraction) is 0.0162.

Q: What about the solubility (mole fraction) (in ethanol, 318.6 K) of the same molecule?
A: The solubility (mole fraction) was 0.0225.

Q: What about the solubility (mole fraction) (in ethanol, 323.2 K) of the same molecule?
A: Its solubility (mole fraction) is 0.0279.

Q: What about the solubility (mole fraction) (in ethanol, 327.9 K) of the same molecule?
A: Its solubility (mole fraction) is 0.0385.

Q: What about the solubility (mole fraction) (in ethanol, 333 K) of the same molecule?
A: Its solubility (mole fraction) is 0.0494.

Q: With `O=[N+]([O-])c1ccc(N/N=C/c2ccco2)cc1` as the molecule, how does the solubility (mole fraction) (in water, 298.15 K) read?
A: The solubility (mole fraction) was 1.72e-07.

Q: With `CSCC[C@H](N)C(=O)O` as the molecule, how does the solubility (mole fraction) (in water, 283.15 K) read?
A: Its solubility (mole fraction) is 0.00531.

Q: And the solubility (mole fraction) (in water, 288.15 K)?
A: Its solubility (mole fraction) is 0.00555.

Q: And the solubility (mole fraction) (in water, 293.15 K)?
A: The solubility (mole fraction) was 0.00625.

Q: What about the solubility (mole fraction) (in water, 298.15 K) of the same molecule?
A: The solubility (mole fraction) was 0.00681.

Q: What about the solubility (mole fraction) (in water, 303.15 K) of the same molecule?
A: Its solubility (mole fraction) is 0.00724.

Q: What about the solubility (mole fraction) (in water, 308.15 K) of the same molecule?
A: Its solubility (mole fraction) is 0.00787.

Q: And the solubility (mole fraction) (in water, 313.15 K)?
A: The solubility (mole fraction) was 0.00837.

Q: Which solubility (mole fraction) (in acetic acid, 313.2 K) does the source give for `O=C(O)c1ccc(C(=O)O)c(C(=O)O)c1` here?
A: Its solubility (mole fraction) is 0.00168.

Q: What about the solubility (mole fraction) (in acetic acid, 323.2 K) of the same molecule?
A: The solubility (mole fraction) was 0.00311.

Q: And the solubility (mole fraction) (in acetic acid, 333.2 K)?
A: Its solubility (mole fraction) is 0.0048.

Q: And the solubility (mole fraction) (in acetic acid, 343.2 K)?
A: Its solubility (mole fraction) is 0.00676.

Q: And the solubility (mole fraction) (in acetic acid, 353.2 K)?
A: The solubility (mole fraction) was 0.0087.

Q: And the solubility (mole fraction) (in acetic acid, 363.2 K)?
A: The solubility (mole fraction) was 0.0106.

Q: With `O=c1[nH]cc(C(F)(F)F)c(=O)[nH]1` as the molecule, how does the solubility (mole fraction) (in water, 298.15 K) read?
A: Its solubility (mole fraction) is 0.00268.

Q: Which results are given for `CC(C)(C)C(=O)OCOP(=O)(COCCn1cnc2c(N)ncnc21)OCOC(=O)C(C)(C)C`?
A: solubility (mole fraction) (in acetone, 298.15 K): 0.0662; solubility (mole fraction) (in dichloromethane, 298.15 K): 0.175; solubility (mole fraction) (in diisopropyl ether, 298.15 K): 3.71e-05; solubility (mole fraction) (in ethanol, 298.15 K): 0.0341; solubility (mole fraction) (in ethyl acetate, 298.15 K): 0.0263; solubility (mole fraction) (in isopropanol, 298.15 K): 0.0252

Q: Which results are given for `C[N+](C)(C)CCOP(=O)([O-])OP(=O)([O-])OC[C@H]1O[C@@H](n2ccc(N)nc2=O)[C@H](O)[C@@H]1O.[Na+]`?
A: solubility (mole fraction) (in water, 278.15 K): 0.0211; solubility (mole fraction) (in water, 281.15 K): 0.0216; solubility (mole fraction) (in water, 285.15 K): 0.0224; solubility (mole fraction) (in water, 289.15 K): 0.0234; solubility (mole fraction) (in water, 293.15 K): 0.0248; solubility (mole fraction) (in water, 298.15 K): 0.0265

Q: For `O=[N+]([O-])c1ccc(N/N=C/c2ccc[nH]2)c([N+](=O)[O-])c1`, which solubility (mole fraction) (in water, 298.15 K) is on record?
A: Its solubility (mole fraction) is 1.6e-08.

Q: With `O=[N+]([O-])c1ccc(N/N=C/c2ccc[nH]2)cc1` as the molecule, how does the solubility (mole fraction) (in water, 298.15 K) read?
A: The solubility (mole fraction) was 1.73e-07.
